Measurements taken from patent publication US9914737B2, “Triazolopyrimidinone or triazolopyridinone derivatives, and use thereof” (ST PHARM CO., LTD., priority 2014, dated 2018).
Structures can show the parent of a compound that is named as a salt.

Each compound was assayed against T1, tankyrase 1 (Homo sapiens, UniProt O95271) (assay: Analysis of activity of tankyrase 1 (Trevigen kit, ELISA absorbance at 450 nm)). Conditions: not given.
T1 construct: purchased Trevigen 4700-096-K
T1 sequence (O95271 1-1327): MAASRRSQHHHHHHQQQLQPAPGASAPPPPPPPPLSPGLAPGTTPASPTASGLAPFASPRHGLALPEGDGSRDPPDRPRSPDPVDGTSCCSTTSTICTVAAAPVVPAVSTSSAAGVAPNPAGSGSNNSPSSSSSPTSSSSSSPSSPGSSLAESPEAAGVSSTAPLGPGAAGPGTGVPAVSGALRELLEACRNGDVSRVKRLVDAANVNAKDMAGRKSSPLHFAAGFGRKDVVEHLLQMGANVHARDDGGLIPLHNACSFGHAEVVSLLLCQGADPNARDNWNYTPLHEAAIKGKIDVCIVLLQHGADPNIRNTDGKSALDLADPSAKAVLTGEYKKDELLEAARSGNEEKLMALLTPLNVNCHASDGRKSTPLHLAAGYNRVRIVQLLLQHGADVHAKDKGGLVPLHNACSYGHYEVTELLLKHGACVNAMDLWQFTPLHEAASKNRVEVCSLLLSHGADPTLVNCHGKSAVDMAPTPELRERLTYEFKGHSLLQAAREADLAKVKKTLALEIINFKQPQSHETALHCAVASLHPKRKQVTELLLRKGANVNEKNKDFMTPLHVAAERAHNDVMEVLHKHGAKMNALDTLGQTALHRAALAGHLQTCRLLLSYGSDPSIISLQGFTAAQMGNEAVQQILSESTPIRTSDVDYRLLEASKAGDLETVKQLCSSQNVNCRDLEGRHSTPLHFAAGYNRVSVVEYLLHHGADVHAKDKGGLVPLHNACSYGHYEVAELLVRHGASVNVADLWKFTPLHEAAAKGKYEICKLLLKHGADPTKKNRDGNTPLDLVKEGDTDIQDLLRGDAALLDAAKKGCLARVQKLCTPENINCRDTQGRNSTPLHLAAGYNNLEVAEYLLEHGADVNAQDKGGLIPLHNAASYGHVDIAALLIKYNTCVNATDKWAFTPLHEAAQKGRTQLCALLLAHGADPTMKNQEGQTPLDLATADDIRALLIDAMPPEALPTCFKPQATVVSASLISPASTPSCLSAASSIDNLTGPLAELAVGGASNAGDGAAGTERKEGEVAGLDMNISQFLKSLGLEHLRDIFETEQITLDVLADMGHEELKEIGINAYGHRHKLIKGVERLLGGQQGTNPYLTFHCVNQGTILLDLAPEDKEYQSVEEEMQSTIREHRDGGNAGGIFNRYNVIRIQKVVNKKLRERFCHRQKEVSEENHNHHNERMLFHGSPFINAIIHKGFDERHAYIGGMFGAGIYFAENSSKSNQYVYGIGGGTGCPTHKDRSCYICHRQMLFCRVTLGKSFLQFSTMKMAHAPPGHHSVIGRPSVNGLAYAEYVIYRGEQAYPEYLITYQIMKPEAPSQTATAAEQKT
Assay type: biochemical
Description: Activities of novel compounds synthesized according to Examples 1 to 72 against tankyrase 1 were analyzed using a Trevigen kit (Cat. No. 4700-096-K). Poly PAR histone protein-coated 96-well plate, anti-PAR monoclonal antibody and goat anti-mouse IgG-HRP were used for measurement of absorbance by ELISA method. Specifically, 20× I-PAR assay buffer was diluted to 1× by adding water, and 50 μL of the diluted buffer was added to each well of the 96-well plate followed by reacting at rt for 30 min. Then, the supernatant was completely removed from each well and 10 μL of 1× I-PAR assay buffer and 15 μL of assay substrate were added to each well along with 1 μL of a 50× solution of inhibitors to be tested, which were the compounds obtained in the Examples 1 to 72. 10 mUnits/μL of tankyrase 1 enzyme was diluted 50-fold with 1× I-PAR assay buffer and 25 μL of the diluted enzyme was added to each well and reacted while stirring at rt for 30 min. One without any compound of the present invention was used as a positive control and another containing 1× I-PAR assay buffer with the same volume instead of tankyrase 1 enzyme was used as a negative control. Upon completion of the reaction, 200 μL of PBSX, which was prepared by adding 0.1% triton X-100 to PBS, was added and removed and this washing process was repeated twice. Washing was repeated twice more using PBS in the same manner. 5× antibody diluent was diluted with distilled water to 1× concentration, 50 μL of the diluted goat anti-mouse IgG-HRP to 1/2000 was added to each well and reacted while stirring at rt for 30 min. Washes were carried out twice using PBSX and PBS, respectively. After adding 50 μL of TACS-sapphire to each well of the plate, the plate was blocked from light to react for 10 min to 15 min and the color of the reaction solution turned blue. To stop the reaction, 50 μL of 0.2N HCl was added to turn the solution yellow. Finally, the absorbance of the resulting solution was measured at 450 nm.

SMILES	IC50
Cn1nnc2c(=O)[nH]c(N3CCN(c4c(F)cc(OC5COC5)cc4F)CC3)nc21 [compound 15, 5-(4-(2,6-Difluoro-4-(oxetan-3-yloxy)phenyl)piperazin-1-yl)-3-methyl-3H-[1,2,3]triazolo[4,5-d]pyrimidin-7(6H)-one]	24.7 nM
Cn1nnc2c(=O)[nH]c(N3CCN(c4c(F)cccc4F)CC3)nc21 [compound 21, 5-(4-(2,6-Difluorophenyl)piperazin-1-yl)-3-methyl-3H-[1,2,3]triazolo[4,5-d]pyrimidin-7(6H)-one]	8.9 nM
COCCOc1cc(F)c(N2CCN(c3nc4c(nnn4C)c(=O)[nH]3)CC2)c(F)c1 [compound 2, 5-(4-(2,6-Difluoro-4-(2-methoxyethoxy)phenyl)piperazin-1-yl)-3-methyl-3H-[1,2,3]triazolo[4,5-d]pyrimidin-7(6H)-one]	29.9 nM
COCCOc1cc(F)c(N2CCN(c3cc4c(nnn4C)c(=O)[nH]3)CC2)c(F)c1 [compound 53, 6-(4-(2,6-Difluoro-4-(2-methoxyethoxy)phenyl)piperazin-1-yl)-1-methyl-1H[1,2,3]triazolo[4,5-c]pyridin-4(5H)-one]	22.7 nM

Same assay, conditions: tankyrase 1 enzyme, Trevigen kit Cat. No. 4700-096-K, 30 min at rt; read-out: TNKS1 (IC50)

SMILES	IC50
Cn1nnc2c(=O)[nH]c(N3CCC(c4nnn[nH]4)CC3)nc21 [compound 26, 5-(4-(1H-tetrazol-5-yl)piperidin-1-yl)-3-methyl-3H-[1,2,3]triazolo[4,5-d]pyrimidin-7(6H)-one]	411 nM
Cn1nnc2c(=O)[nH]c(N3CCN(c4c(F)cc(OCc5ccccc5)cc4F)CC3)nc21 [compound 3, 5-(4-(4-(Benzyloxy)-2,6-difluorophenyl)piperazin-1-yl)-3-methyl-3H-[1,2,3]triazolo[4,5-d]pyrimidin-7(6H)-one]	207 nM
Cn1nnc2c(=O)[nH]c(N3CCN(c4c(F)cc(OCC(=O)N5CCCC5)cc4F)CC3)nc21 [compound 36, 5-(4-(2,6-Difluoro-4-(2-oxo-2-(pyrrolidin-1-yl)ethoxy)phenyl)piperazin-1-yl)-3-methyl-3H-[1,2,3]triazolo[4,5-d]pyrimidin-7(6H)-one]	39.6 nM
Cn1nnc2c(=O)[nH]c(N3CCN(c4c(F)cc(OCCN5CCOCC5)cc4F)CC3)nc21 [compound 4, 5-(4-(2,6-Difluoro-4-(2-morpholinoethoxy)phenyl)piperazin-1-yl)-3-methyl-3H-[1,2,3]triazolo[4,5-d]pyrimidin-7(6H)-one]	38.6 nM
COCCOc1cc(F)c(C2CCN(c3nc4c(nnn4C)c(=O)[nH]3)CC2)c(F)c1 [compound 45, 5-(4-(2,6-Difluoro-4-(2-methoxyethoxy)phenyl)piperidin-1-yl)-3-methyl-3H-[1,2,3]triazolo[4,5-d]pyrimidin-7(6H)-one]	37.6 nM
Cn1nnc2c(=O)[nH]c(N3CCN(c4c(F)cc(OCCN5CCCCC5)cc4F)CC3)nc21 [compound 5, 5-(4-(2,6-Difluoro-4-(2-(piperidin-1-yl)ethoxy)phenyl)piperazin-1-yl)-3-methyl-3H-[1,2,3]triazolo[4,5-d]pyrimidin-7(6H)-one]	14.2 nM
Cn1nnc2c(=O)[nH]c(N3CCN(c4c(F)cc(CN5CCOCC5)cc4F)CC3)cc21 [compound 60, 6-(4-(2,6-Difluoro-4-(morpholinomethyl)phenyl)piperazin-1-yl)-1-methyl-1H-[1,2,3]triazolo[4,5-c]pyridin-4(5H)-one]	25.8 nM
Cn1nnc2c(=O)[nH]c(N3CCN(c4c(F)cc(CN5CCOCC5)cc4F)CC3)nc21 [compound 13, 5-(4-(2,6-Difluoro-4-(morpholinomethyl)phenyl)piperazin-1-yl)-3-methyl-3H-[1,2,3]triazolo[4,5-d]pyrimidin-7(6H)-one]	28 nM
Cn1nnc2c(=O)[nH]c(N3CCN(c4c(F)cc(OCCN5CCC(N)CC5)cc4F)CC3)cc21 [compound 72, 6-(4-(4-(2-(4-Aminopiperidin-1-yl)ethoxy)-2,6-difluorophenyl)piperazin-1-yl)-1-methyl-1H-[1,2,3]triazolo[4,5-c]pyridin-4(5H)-one]	7.31 nM
Cn1nnc2c(=O)[nH]c(N3CCN(c4c(F)cc(OCCN5CCCCC5)cc4F)CC3)cc21 [compound 55, 6-(4-(2,6-Difluoro-4-(2-(piperidin-1-yl)ethoxy)phenyl)piperazin-1-yl)-1-methyl-1H-[1,2,3]triazolo[4,5-c]pyridin-4(5H)-one]	29.3 nM
Cn1nnc2c(=O)[nH]c(N3CCN(c4c(F)cc(OCCN5CCCC5)cc4F)CC3)cc21 [compound 67, 6-(4-(2,6-Difluoro-4-(2-(pyrrolidin-1-yl)ethoxy)phenyl)piperazin-1-yl)-1-methyl-1H-[1,2,3]triazolo[4,5-c]pyridin-4(5H)-one]	18.6 nM
C[C@H](N)C(=O)OCCOc1cc(F)c(N2CCN(c3cc4c(nnn4C)c(=O)[nH]3)CC2)c(F)c1 [compound 58, (S)-2-(3,5-difluoro-4-(4-(1-methyl-4-oxo-4,5-dihydro-1H-[1,2,3]triazolo[4,5-c]pyridin-6-yl)piperazin-1-yl)phenoxy)ethyl2-aminopropanoate hydrochloride]	13.4 nM
Cn1nnc2c(=O)[nH]c(N3CCN(c4c(F)cc(OCCN5CCC(N)CC5)cc4F)CC3)nc21 [compound 39, 5-(4-(4-(2-(4-Aminopiperidin-1-yl)ethoxy)-2,6-difluorophenyl)piperazin-1-yl)-3-methyl-3H-[1,2,3]triazolo[4,5-d]pyrimidin-7(6H)-one]	22.7 nM
Cn1nnc2c(=O)[nH]c(N3CCN(c4c(F)cc(OCC(O)CO)cc4F)CC3)nc21 (stereo not shown) [compound 12, 5-(4-(4-(2,3-Dihydroxypropoxy)-2,6-difluorophenyl)piperazin-1-yl)-3-methyl-3H-[1,2,3]triazolo[4,5-d]pyrimidin-7(6H)-one]	12.9 nM
COCCN(C)Cc1cc(F)c(N2CCN(c3nc4c(nnn4C)c(=O)[nH]3)CC2)c(F)c1 [compound 20, 5-(4-(2,6-Difluoro-4-(((2-methoxyethyl)(methyl)amino)methyl)phenyl)piperazin-1-yl)-3-methyl-3H-[1,2,3]triazolo[4,5-d]pyrimidin-7(6H)-one]	83.1 nM
CC(O)c1cc(F)c(N2CCN(c3cc4c(nnn4C)c(=O)[nH]3)CC2)c(F)c1 (stereo not shown) [compound 63, 6-(4-(2,6-Difluoro-4-(1-hydroxyethyl)phenyl)piperazin-1-yl)-1-methyl-1H[1,2,3]triazolo[4,5-c]pyridin-4(5H)-one]	27.3 nM
COCCN(CCOC)c1cc(F)c(N2CCN(c3nc4c(nnn4C)c(=O)[nH]3)CC2)c(F)c1 [compound 34, 5-(4-(4-(Bis(2-methoxyethyl)amino)-2,6-difluorophenyl)piperazin-1-yl)-3-methyl-3H-[1,2,3]triazolo[4,5-d]pyrimidin-7(6H)-one]	67.7 nM
Cn1nnc2c(=O)[nH]c(N3CCN(c4c(F)cc(OC(CO)CCl)cc4F)CC3)nc21 (stereo not shown) [compound 16, 5-(4-(4-(1-Chloro-3-hydroxypropan-2-yloxy)-2,6-difluorophenyl)piperazin-1-yl)-3-methyl-3H-[1,2,3]triazolo[4,5-d]pyrimidin-7(6H)-one]	28.6 nM
